Laboratory results reported in patent US12351576B2, “FGFR inhibitor, preparation method therefor and application thereof” (Abbisko Therapeutics Co., Ltd., priority 2018, dated 2025).

How the values were obtained:
[1] = tested on: Snu-16 gastric cancer cells (FGFR2 gene amplification); test: Cell proliferation assay (Cell Titer Glo), Snu-16; format: cell-based; conditions: Homo sapiens, SNU-16, 72 h, Snu-16 cells, 3 days, CTG; read-out: Cellular IC50 (nM) Sun16
Description: (§1) II. Cell Proliferation Assay (Cell Titer Glo(CTG) Assay)
(§2) The FGFR signal pathway dependent inhibitory effect of the compound in the present invention on cell proliferation was assessed by survival test using CTG reagent (Promega, 4G7573). Cell lines representative of a variety of tumor types, including H1581 lung cancer cells (FGFR1 gene amplification), Snu-16 gastric cancer cells (FGFR2 gene amplification), and RT112 bladder carcinoma cells (FGFR3-TACC3 fusion) from Nanjing Cobioer Biosciences, were selected for the assay. The specific experimental procedure was as follows: • 1. 90 μL of cells were seeded into a 96-well plate processed with TCM (Costar 43904), and incubated overnight at 37° C. in a 5% CO2 incubator; afterwards, 10 μL of the culture medium containing the compound at 10 fold of its final concentration was added; • 2. The dose-dependent effect was evaluated by a serial dilution of the test compound, starting from 10 μM or a lower concentration. • 3. The cells were incubated at 37° C. under 5% C02 for 3 days, then added 50 μL CTG, and read the data with Envision (Pelkin Elmer) to quantify the ATP level in the cells. The ATP levels in cells with treatment of inhibitor at a variety of concentrations were compared with those in cells of the control group (in which DMSO was added into the medium) to evaluate the compound percent inhibition of cell proliferation/survival. • 4. The compound half growth inhibitory concentration (IC50) was determined in Graphpad Prism by 4-parameter curve fitting.

[2] = tested on: H1581 lung cancer cells (FGFR1 gene amplification); test: Cell proliferation assay (Cell Titer Glo), H1581; format: cell-based; conditions: Homo sapiens, NCI-H1581, 72 h, 3 days, CTG, read-out: Cellular IC50 (nM) H1581
Description: as §1, §2

FGFR1 = FGFR1 (Homo sapiens (Human), UniProt P11362); test: In vitro biochemical kinase assay (Caliper Assay), FGFR1; conditions: enzyme 0.25 nM, ATP 382 μM, 20 minutes; read-out: Enzymatic activity IC50(nM) FGFR1
Description: (§3) I. In Vitro Biochemical Kinase Assay of FGFR 1˜3
(§4) Caliper Assay was used in the present invention to determine the inhibitory activities of the compounds against FGFR1, FGFR2, and FGFR3. The specific experimental procedure was as follows: • 1. The kinase reaction in the present invention was carried out in 384-well plates, the kinase(Carna) at a certain concentration and ATP at a certain concentration and 1 μM of peptide FAM-P22 (GL Biochem, Cat. No. 112393)) was incubated to react for a certain time at 28° C. in a reaction system consisting of 50 mM HEPES, […], 0.0015% Brij-35 and basic kinase buffer; for FGFR1, the enzyme concentration was 0.25 nM and ATP concentration was 382 μM and the reaction time was 20 minutes; for FGFR2, the enzyme concentration was 2.5 nM, ATP concentration was 1 μM, and the reaction time was 40 minutes; for FGFR3, the enzyme concentration was 8 nM, ATP concentration was 4.7 μM, and the reaction time was 30 minutes: • 2. The reaction was terminated with a stop solution (100 mM HEPES, pH 7.5, 0.2% Caliper coating, reagent, 50 mM EDTA and 0.015% Brij35); • 3. The plate with the terminated kinase reaction was transferred to the Caliper workstation to read the data; • 4. the phosphorylated and unphosphorylated peptides were separated by the Caliper microfluid migration shift technique, and the analyte was transferred by a constant buffer flow through the chip, the migration of the substrate peptide was monitored by the labeled fluorescent signal, and the kinase activity was calculated by the amount of the phosphate-based peptide formed. • 5. IC50 was determined by non-linear regression analysis of percent inhibition at different concentration level of the compound.

FGFR2 = FGFR2 (Homo sapiens (Human), UniProt P21802); test: In vitro biochemical kinase assay (Caliper Assay), FGFR2; conditions: enzyme 2.5 nM, ATP 1 μM, 40 minutes; read-out: Enzymatic activity IC50(nM) FGFR2
Description: as §3, §4

Sequence of FGFR1 (P11362 22-822): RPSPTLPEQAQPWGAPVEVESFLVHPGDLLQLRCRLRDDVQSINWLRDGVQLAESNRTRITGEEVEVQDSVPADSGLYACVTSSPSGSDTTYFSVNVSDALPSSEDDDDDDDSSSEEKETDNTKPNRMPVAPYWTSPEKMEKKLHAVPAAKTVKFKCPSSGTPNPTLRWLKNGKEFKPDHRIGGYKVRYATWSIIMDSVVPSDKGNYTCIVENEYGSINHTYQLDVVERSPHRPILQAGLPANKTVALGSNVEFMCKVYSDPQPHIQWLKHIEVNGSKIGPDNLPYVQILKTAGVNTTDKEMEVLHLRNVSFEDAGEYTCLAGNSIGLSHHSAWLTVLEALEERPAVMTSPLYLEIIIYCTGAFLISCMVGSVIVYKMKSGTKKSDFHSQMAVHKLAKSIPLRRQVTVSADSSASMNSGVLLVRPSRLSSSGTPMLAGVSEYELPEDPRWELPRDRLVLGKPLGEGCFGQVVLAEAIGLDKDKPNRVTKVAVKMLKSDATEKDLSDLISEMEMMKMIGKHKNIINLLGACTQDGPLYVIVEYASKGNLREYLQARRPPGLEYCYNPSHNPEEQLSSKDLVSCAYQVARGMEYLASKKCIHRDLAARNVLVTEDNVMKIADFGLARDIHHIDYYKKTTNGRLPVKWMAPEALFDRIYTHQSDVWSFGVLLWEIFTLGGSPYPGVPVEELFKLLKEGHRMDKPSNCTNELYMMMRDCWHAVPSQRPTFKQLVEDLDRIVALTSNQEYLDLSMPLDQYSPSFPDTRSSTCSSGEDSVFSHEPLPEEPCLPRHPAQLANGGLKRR
Sequence of FGFR2 (P21802 22-821): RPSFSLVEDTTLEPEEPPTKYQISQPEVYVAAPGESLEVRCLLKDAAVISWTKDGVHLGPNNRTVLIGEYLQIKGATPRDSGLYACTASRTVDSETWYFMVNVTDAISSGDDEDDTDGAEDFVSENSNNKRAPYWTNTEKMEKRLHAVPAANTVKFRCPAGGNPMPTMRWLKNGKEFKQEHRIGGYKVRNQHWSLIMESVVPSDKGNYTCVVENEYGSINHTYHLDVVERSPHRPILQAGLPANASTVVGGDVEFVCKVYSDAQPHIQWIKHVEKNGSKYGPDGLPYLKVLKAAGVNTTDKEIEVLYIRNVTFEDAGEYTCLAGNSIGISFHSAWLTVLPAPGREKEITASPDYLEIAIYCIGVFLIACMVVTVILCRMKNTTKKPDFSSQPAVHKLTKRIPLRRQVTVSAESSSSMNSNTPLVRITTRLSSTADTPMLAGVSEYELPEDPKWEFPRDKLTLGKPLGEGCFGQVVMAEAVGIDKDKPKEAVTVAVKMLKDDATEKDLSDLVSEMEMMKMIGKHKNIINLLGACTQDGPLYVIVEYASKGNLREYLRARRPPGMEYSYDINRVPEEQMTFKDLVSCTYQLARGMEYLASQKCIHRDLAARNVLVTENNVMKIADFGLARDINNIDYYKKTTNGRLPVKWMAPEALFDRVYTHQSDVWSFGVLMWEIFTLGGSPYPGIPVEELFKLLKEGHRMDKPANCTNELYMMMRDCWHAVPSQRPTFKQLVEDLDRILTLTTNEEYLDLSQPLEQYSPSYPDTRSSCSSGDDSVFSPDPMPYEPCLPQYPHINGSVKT

Row | Structure (SMILES) | IC50 [1] | IC50 [2] | IC50 (FGFR1) | IC50 (FGFR2)
1 | COc1cc(OC)c(F)c(-c2cc3cnc(-c4cnccc4C)cc3n(C3CCOC3)c2=O)c1F (centres unmarked) [Example 37, 3-(2,6-difluoro-3,5-dimethoxyphenyl)-7-(4-methylpyridin-3-yl)-1-(tetrahydrofuran-3-yl)-1,6-naphthyridin-2(1H)-one] | 50 to 500 nM | > 500 nM |  | 
2 | CCn1c(=O)c(-c2c(Cl)c(OC)cc(OC)c2Cl)cc2cnc(-c3cnn(CCN(C)C)c3C)cc21 [Example 52, 3-(2,6-dichloro-3,5-dimethoxyphenyl)-7-(1-(2-(dimethylamino)ethyl)-5-methyl-1H-pyrazol-4-yl)-1-ethyl-1,6-naphthyridin-2(1H)-one] | 50 to 500 nM | > 500 nM |  | 
3 | COc1cc(OC)c(F)c(-c2cc3cnc(-c4ccc(CC#N)cc4)cc3n(C3CCOC3)c2=O)c1F (centres unmarked) [Example 41, 2-(4-(3-(2,6-difluoro-3,5-dimethoxyphenyl)-2-oxo-1-(tetrahydrofuran-3-yl)-1,2-dihydro-1,6-naphthyridin-7-yl)phenyl)acetonitrile] | 50 to 500 nM | 50 to 500 nM |  | 
4 | CCn1c(=O)c(-c2c(Cl)c(OC)cc(OC)c2Cl)cc2cnc(-c3cnn(CC#N)c3C)cc21 [Example 50, 2-(4-(3-(2,6-dichloro-3,5-dimethoxyphenyl)-1-ethyl-2-oxo-1,2-dihydro-1,6-naphthyridin-7-yl)-5-methyl-1H-pyrazol-1-yl)acetonitrile] | > 500 nM | > 500 nM |  | 
5 | CCn1c(=O)c(-c2cc(OC)cc(OC)c2Cl)cc2cnc(-c3cnn(C)c3)cc21 [Example 13, 3-(2-chloro-3,5-dimethoxyphenyl)-1-ethyl-7-(1-methyl-1H-pyrazol-4-yl)-1,6-naphthyridin-2(1H)-one] |  |  | 50 to 500 nM | 5 to 10 nM
6 | CCn1c(=O)c(-c2c(Cl)c(OC)cc(OC)c2Cl)cc2cnc(-c3cnn(C)c3)cc21 [Example 1, 3-(2,6-dichloro-3,5-dimethoxyphenyl)-1-ethyl-7-(1-methyl-1H-pyrazol-4-yl)-1,6-naphthyridin-2(1H)-one] |  |  | 10 to 50 nM | ≤ 5 nM
7 | CCn1c(=O)c(-c2c(Cl)c(OC)cc(OC)c2Cl)cc2cnc(-c3cn(CCC#N)nc3C)cc21 [Example 44, 3-(4-(3-(2,6-dichloro-3,5-dimethoxyphenyl)-1-ethyl-2-oxo-1,2-dihydro-1,6-naphthyridin-7-yl)-3-methyl-1H-pyrazol-1-yl)propanenitrile] | 50 to 500 nM | 50 to 500 nM |  | 
8 | CCn1c(=O)c(-c2c(Cl)c(OC)cc(OC)c2Cl)cc2cnc(-c3ccc(C4(C#N)CCC4)nc3)cc21 [Example 12, 1-(5-(3-(2,6-dichloro-3,5-dimethoxyphenyl)-1-ethyl-2-oxo-1,2-dihydro-1,6-naphthyridin-7-yl)pyridin-2-yl)cyclobutane-1-carbonitrile] | 50 to 500 nM | > 500 nM |  | 
9 | CCn1c(=O)c(-c2c(Cl)c(OC)cc(OC)c2Cl)cc2cnc(-c3cnn(CCC#N)c3C)cc21 [Example 51, 3-(4-(3-(2,6-dichloro-3,5-dimethoxyphenyl)-1-ethyl-2-oxo-1,2-dihydro-1,6-naphthyridin-7-yl)-5-methyl-1H-pyrazol-1-yl)propanenitrile] | 50 to 500 nM | > 500 nM |  | 
10 | COc1cc(OC)c(Cl)c(-c2cc3cnc(-c4cn(CCN5CCOCC5)nc4C)cc3n(C)c2=O)c1Cl [Example 47, 3-(2,6-dichloro-3,5-dimethoxyphenyl)-1-methyl-7-(3-methyl-1-(2-morpholinoethyl)-1H-pyrazol-4-yl)-1,6-naphthyridin-2(1H)-one] | 50 to 500 nM | 50 to 500 nM |  | 
11 | COc1cc(OC)c(Cl)c(-c2cc3cnc(-c4ccc(C5(C#N)CCC5)nc4)cc3n(C)c2=O)c1Cl [Example 20, 1-(5-(3-(2,6-dichloro-3,5-dimethoxyphenyl)-1-methyl-2-oxo-1,2-dihydro-1,6-naphthyridin-7-yl)pyridin-2-yl)cyclobutane-1-carbonitrile] | 50 to 500 nM | > 500 nM |  | 
12 | COc1cc(OC)c(Cl)c(-c2cc3cnc(-c4cnn(C)c4)cc3n(C(C)C)c2=O)c1Cl [Example 3, 3-(2,6-dichloro-3,5-dimethoxyphenyl)-1-isopropyl-7-(1-methyl-1H-pyrazol-4-yl)-1,6-naphthyridin-2(1H)-one] |  |  | 5 to 10 nM | ≤ 5 nM

Other lines, results leading:

Row | IC50 [1] | IC50 [2] | IC50 (FGFR1) | IC50 (FGFR2) | Structure (SMILES)
13 | ≤ 5 nM | 10 to 50 nM |  |  | COc1cc(OC)c(F)c(-c2cc3cnc(-c4ccc(N5CC6CC5CO6)nc4)cc3n(C3CCOC3)c2=O)c1F (centres unmarked) [Example 38, 7-(6-(2-oxa-5-azabicyclo[2.2.1]heptan-5-yl)pyridin-3-yl)-3-(2,6-difluoro-3,5-dimethoxyphenyl)-1-(tetrahydrofuran-3-yl)-1,6-naphthyridin-2(1H)-one]
14 | 50 to 500 nM | 50 to 500 nM |  |  | COc1cc(OC)c(F)c(-c2cc3cnc(-c4ccncc4)cc3n(C3CCOC3)c2=O)c1F (centres unmarked) [Example 39, 3-(2,6-difluoro-3,5-dimethoxyphenyl)-7-(pyridin-4-yl)-1-(tetrahydrofuran-3-yl)-1,6-naphthyridin-2(1H)-one]
15 | 10 to 50 nM | 10 to 50 nM |  |  | COc1cc(OC)c(F)c(-c2cc3cnc(-c4cnn(C)c4)cc3n(C(C)C)c2=O)c1F [Example 26, 3-(2,6-difluoro-3,5-dimethoxyphenyl)-1-isopropyl-7-(1-methyl-1H-pyrazol-4-yl)-1,6-naphthyridin-2(1H)-one]
16 | 10 to 50 nM | 50 to 500 nM |  |  | COc1cc(OC)c(Cl)c(-c2cc3cnc(-c4cnn(C)c4)cc3n(C3CCOC3)c2=O)c1 (centres unmarked) [Example 24, 3-(2-chloro-3,5-dimethoxyphenyl)-7-(1-methyl-1H-pyrazol-4-yl)-1-(tetrahydrofuran-3-yl)-1,6-naphthyridin-2(1H)-one]
17 | 50 to 500 nM | 50 to 500 nM |  |  | CCn1c(=O)c(-c2c(Cl)c(OC)cc(OC)c2Cl)cc2cnc(-c3cnn(CCN4CCOCC4)c3C)cc21 [Example 49, 3-(2,6-dichloro-3,5-dimethoxyphenyl)-1-ethyl-7-(5-methyl-1-(2-morpholinoethyl)-1H-pyrazol-4-yl)-1,6-naphthyridin-2(1H)-one]
18 | 10 to 50 nM | 50 to 500 nM |  |  | CCn1c(=O)c(-c2c(Cl)c(OC)cc(OC)c2Cl)cc2cnc(-c3cn(CCN(C)C)nc3C)cc21 [Example 45, 3-(2,6-dichloro-3,5-dimethoxyphenyl)-7-(1-(2-(dimethylamino)ethyl)-3-methyl-1H-pyrazol-4-yl)-1-ethyl-1,6-naphthyridin-2(1H)-one]
19 | 10 to 50 nM | 50 to 500 nM |  |  | COc1cc(OC)c(F)c(-c2cc3cnc(-c4cnn(CCN5CCOCC5)c4)cc3n(CC3CC3)c2=O)c1F [Example 31, 1-(cyclopropylmethyl)-3-(2,6-difluoro-3,5-dimethoxyphenyl)-7-(1-(2-morpholinoethyl)-1H-pyrazol-4-yl)-1,6-naphthyridin-2(1H)-one]
20 | 10 to 50 nM | 50 to 500 nM |  |  | COc1cc(OC)c(F)c(-c2cc3cnc(-c4cccnc4)cc3n(C3CCOC3)c2=O)c1F (centres unmarked) [Example 36, 3-(2,6-difluoro-3,5-dimethoxyphenyl)-7-(pyridin-3-yl)-1-(tetrahydrofuran-3-yl)-1,6-naphthyridin-2(1H)-one]
21 | 5 to 10 nM | 50 to 500 nM |  |  | COc1cc(OC)c(Cl)c(-c2cc3cnc(-c4cnn(C)c4)cc3n(C3CCOCC3)c2=O)c1Cl [Example 17, 3-(2,6-dichloro-3,5-dimethoxyphenyl)-7-(1-methyl-1H-pyrazol-4-yl)-1-(tetrahydro-2H-pyran-4-yl)-1,6-naphthyridin-2(1H)-one]
22 | 10 to 50 nM | 50 to 500 nM |  |  | CCn1c(=O)c(-c2c(Cl)c(OC)cc(OC)c2Cl)cc2cnc(-c3cn(CCN4CCOCC4)nc3C)cc21 [Example 42, 3-(2,6-dichloro-3,5-dimethoxyphenyl)-1-ethyl-7-(3-methyl-1-(2-morpholinoethyl)-1H-pyrazol-4-yl)-1,6-naphthyridin-2(1H)-one]
